Reference: patent US11247970B2, “Selective inhibition of gluconeogenic activity” (Dana-Farber Cancer Institute, Inc., priority 2017, dated 2022)

How the values were obtained:
[1] = tested on: primary hepatocytes; experiment: Glucose production by primary hepatocytes (glucagon or Ad-PGC-1α); format: cell-based, mouse; parameters: glucagon- and PGC-1α-mediated glucose production: dose or concentration left out as unconfirmed
Procedure: For measurement of acetylation, gene expression and glucose production SR-18292 ([…]) was added to cells overnight and fresh compound was added the following day for additional 3 h before collecting the cells (for total of ˜18 h treatment). Where insulin and glucagon stimulation were performed, the medium was changed to starvation medium (DMEM, 0.2% BSA, 2 mM sodium pyruvate, and 1% penicillin/streptomycin) with fresh compound for the last 3 h and cells were stimulated with either 100 nM insulin or 200 nM glucagon for an extra 1.5 h. For glucose measurements following PGC-1α over expression cells were incubated for the last 3 h in glucose-free medium (phenol-red/glucose free DMEM, 0.2% BSA, 2 mM sodium pyruvate and 20 mM sodium lactate or 10 mM glycerol in case glycerol was used as substrate). For glucose measurements following glucagon stimulation cells were incubated for the last 4 h in the same glucose-free medium that also contained glucagon (200 nM). The glucose level in the medium was measured using a glucose assay kit from Eton Bioscience Inc. by adding […] of assay buffer to […] of medium followed by 15 min incubation at 37° C. Absorbance was measured at 490 nm.
PGC-1α activates hepatic gluconeogenic gene expression, and an increase in its acetylation status reduces expression of both Pck1 and G6pc genes (Rodgers et al., 2005; Yoon et al., 2001). […] Thus, a high-throughput screen with these 252 compounds at different doses was performed. Briefly, Hepatocytes were treated with forskolin for 1.5 hours to induce the expression of both Pck1 and G6pc genes, which mimics the fasting and PGC-1α-mediated gluconeogenic response. The dose response curves were used to calculate an inhibitory activity of the compounds by determining the difference in Ct values between compound treatment and forskolin control at each dose, and provided an estimated potency of the compounds in suppressing Pck1 and G6pc (FIGS. 4, 34). […] To specifically test the inhibitory activity of the remaining small molecule positive hits on PGC-1α-mediated glucose production, adenoviruses to ectopically express PGC-1α in primary hepatocytes were used. Similar to forskolin, PGC-1α overexpression induces gluconeogenic gene expression and promotes glucose release. Primary hepatocytes were treated with the chosen positive hit compounds that could suppress gluconeogenic gene expression, and the concentration of glucose released to the culture medium was measured.

[2] = tested on: interaction of GCN5 with PGC-1α; experiment: Co-immunoprecipitation of PGC-1α with GCN5 in U-2 OS cells; format: cell-based; conditions: endogenous and ectopically expressed GCN5
Procedure: For PGC-1α acetylation detection in hepatocytes cells were infected with Ad-PGC-1α and Ad-GCN5. Cells were collected in RIPA buffer (containing protease inhibitor cocktail, 5 mM NaF, 5 mM β-glycerophosphate, 10 mM nicotinamide, 1 mM DTT and 1 μM trichostatin A). FLAG-HA-PGC-1α was immunoprecipitated overnight at 4° C. with FLAG beads (Sigma A2220). For GCN5 interaction with PGC-1α, U-2 OS cells were infected with Ad-PGC-1α. Nuclear extracts were obtained by lysing cell in Buffer A (10 mM HEPES-KOH (pH 7.9), 10 mM KCl, 1.5 mM MgCl2, 0.5 mM DTT, 0.25% IGEPAL (v/v), 5 mM NaF, 5 mM β-glycerophosphate, 5 mM sodium butyrate and 10 mM nicotinamide), supplemented with Protease Inhibitor Cocktail. Once cytoplasmic fractions were separated, nuclear pellets were lysed in Buffer B (20 mM HEPES-KOH (pH 7.9), 125 mM NaCl, 1 mM EDTA, 1 mM DTT, 1% IGEPAL (v/v), 10% glycerol (v/v), 5 mM NaF, 5 mM β-glycerophosphate, 5 mM sodium butyrate and 10 mM nicotinamide), supplemented with Protease Inhibitor Cocktail. FLAG-HA-PGC-1α was immunoprecipitated with FLAG beads overnight at 4° C. All beads were washed at last 3 times in lysis buffer before eluting in sample loading buffer.

[3] = tested on: Pck1 and G6pc promoters; experiment: Chromatin immunoprecipitation on Pck1 and G6pc in primary hepatocytes; format: cell-based, mouse
Procedure: Primary hepatocytes were fixed in 1% formaldehyde for 10 minutes at room temperature. Crosslinking was quenched by adding glycine to a final concentration of 125 mM and rinsing twice with PBS. Cells were collected in PBS containing protease inhibitors followed by lysis in chromatin immunoprecipitation (ChIP) buffer (50 mM HEPES pH, 7.9; 140 mM NaCl; 1 mM EDTA; 1% Triton X-100; 0.1% NaDOC, 0.1% sodium dodecyl sulfate (SDS) and protease inhibitors). Chromatin was sheared by sonication with a Diagenode Biorupter for three cycles of 5 minutes (30 seconds on, 30 seconds off). Samples were clarified and chromatin immunoprecipitated overnight at 4° C. with the indicated antibody. Immune complexes were recovered with Protein A magnetic beads (Dynabeads; Novex, Life Technologies) preblocked with salmon sperm DNA (Invitrogen, Life Technologies). Following extensive washes, immunoprecipitated DNA was then isolated with a Chelex. Input DNA was prepared from 10% of respective chromatin prior to precipitation. Immunoprecipitated DNA and input DNA were analyzed by quantitative real-time PCR with primers specific for the indicated region. […] To further characterize the SR-18292-mediated inhibition of HNF4α transcriptional activity, chromatin immunoprecipitation (ChIP) assays were performed to examine the promoter occupancy of HNF4α on Pck1 and [MUT] promoters. Primary hepatocytes were treated with glucagon to induce gluconeogenic gene transcripts, and antibodies against HNF4α were used to IP chromatin fragments bound to this protein. […] Epigenetic changes accompany the response to glucagon in the fasted state, including an increase in activating H3K9 acetylation (H3K9Ac) and H3K4 trimethylation (H3K4Me3) of the Pck1 and [MUT] genes.

[4] = Serum biochemistry for liver toxicity; format: in vivo; conditions: HFD mice
Procedure: (§1) Serum samples were gathered from blood collected by cardiac puncture. Insulin was measured with Ultra Sensitive Mouse Insulin ELISA Kit (Crystal Chem, 90080). Kits used to measure alanine transaminase (EALT-100), aspartate transaminase (EASTR-100), lactate dehydrogenase (DLDH-100) were purchased from Bioassay Systems. Kits used to measure lactate (MAK 064), b-hydroxybutyrate (MAK 041), Triglycerides (TR0100) were purchased from Sigma. Kit used to measure cholesterol (C7510) was purchased from Pointe Scientific. Kit used to measure non-esterified fatty acids was purchased from Wako.
Serum enzymatic activities of alanine transaminase (ALT), aspartate aminotransferase (AST), lactate dehydrogenase (LDH) and bilirubin levels from mice fed high fat diet and treated with SR-18292. n=7.

[5] = Fasting insulin and liver pAkt in treated mice; format: in vivo
Procedure: as §1

[6] = tested on: DIO mice and Lep^ob/ob mice; experiment: Glucose tolerance test (GTT); format: in vivo
Procedure: All mice were purchased from Jackson laboratories and housed under a 12 h light/12 h dark cycle at 22° C. Before handling, mice were allowed to acclimate for at least 1 week in our animal facility. For in vivo studies with DIO mice, males 6-8 weeks old were fed HFD for the indicated time. For drug administration, SR-18292 was re-suspended in a 10% DMSO/10% Tween80/80% PBS solution at a final concentration of 6-12 mg/ml. Metformin was re-suspended in the same solution at a 20 mg/ml concentration. SR-18292 was injected via I.P. for 3 days between 4-5 pm and food was removed on day 3 at 5 pm. […] Metformin was administered via oral gavage. […] Insulin tolerance test was performed following the same dosing protocol, but mice were fasted for 4 hours after the forth injection before performing the test. Insulin was injected via I.P. (0.5 U/Kg) and blood glucose was measured every 20 minutes. Glycemia was measured by tail bleed using a glucometer (OneTouch). For all experiments, age- and body weight-matched animals were used. For protein, RNA extracts and biochemistry studies, livers were removed following each experiment and snap frozen in liquid nitrogen. For information on number of animals in each experiment please refer to FIGS. 4, 5 and S5 legends. All studies were performed according to protocols approved by Beth Israel Deaconess Medical Center's Animal Care and Use Committee.

In the case of Cc1ccc(CN(CC(O)COc2cccc3[nH]ccc23)C(C)(C)C)cc1 (centres unmarked) [SR-18292, 1-((1H-indol-4-yl)oxy)-3-(tert-butyl(4-methylbenzyl)amino)propan-2-ol], the “glucose release after short treatment” value ([1]; 3 hr treatment) is reported as “no effect”, the “glucose production from pyruvate and lactate or from glycerol as substrate” value ([1]; Ad-PGC-1α hepatocytes) is reported as “decreases glucose production” and the “glucagon- and PGC-1α-mediated glucose production” value ([1]; isolated hepatocytes) is reported as “significantly reduced”. For the same compound, the “interaction of GCN5 with PGC-1α” value [2] was “increased”, the FoxO1 promoter occupancy [3] was “not altered” and the “H3K9Ac and H3K4Me3 marks on the Pck1 gene” value [3] was “reduced H3K9Ac and H3K4Me3 marks”. For the same compound, the “glucagon-induced Pck1 and G6pc promoter occupancy by HNF4α” value ([3]; glucagon 200 nM) was “significantly reduced”, the “liver toxicity by serum ALT, AST, LDH and bilirubin” value [4] was “not observed” and the ALT ([4]; serum, 45 mg/kg, n=7) was 9.21 U/L. The AST ([4]; serum, 45 mg/kg, n=7) was 29.94 U/L, the Bilirubin ([4]; serum, 45 mg/kg, n=7) was 0.33 mg/dL and the LDH ([4]; serum, 45 mg/kg, n=7) was 64.44 IU/L. For the same compound, the “basal (fasting) blood insulin levels” value ([5]; HFD 13 weeks) was “not significantly changed”, the “phosphorylation of Akt in liver” value ([5]; fasted mice) was “not changed” and the glucose tolerance ([6]; DIO mice) was “significantly enhanced glucose tolerance”. The glucose tolerance ([6]; Lep^ob/ob mice) was “significantly enhanced glucose tolerance” and the “insulin levels after GTT” value ([6]; mouse, in vivo) was “lower”.
